According to ChEMBL document CHEMBL1153558, “In vitro antifungal susceptibilities of five species of sporothrix” (2008):
In brackets after ≈: the same amount, converted by molar mass. Numbered stars: 1 amine (or outer) side, 2 acyl side, 3 side chain; on linkers, the order of the positions; unused ones are H or OH. Bridge positions count the residues as written; N and C are the ends. Square brackets hold non-standard residues; d marks the D form. Peptide text beside a SMILES is read from it. * marks the point of attachment. hTyr(3S-OH,4S-OH,3'-OSO3H) = N[C@H](C(=O)O)[C@H](O)[C@@H](O)c1ccc(O)c(OS(=O)(=O)O)c1; Orn(4R-OH,5R-OH) = O=C([C@H](C[C@@H](O)[C@@H](O)N[*:3])N[*:1])[*:2]; Pro(3S-OH,4S-Me) = C[C@H]1CN[C@H](C(=O)O)[C@H]1O; X1 = CCCCCOc1ccc(-c2cc(-c3ccc(C(=O)*)cc3)no2)cc1; Gln(3R-OH) = NC(=O)C[C@@H](O)[C@H](N)C(=O)O; Hyp = O=C(O)[C@@H]1C[C@@H](O)CN1

Tests used:
Assay type in all cases: functional
[1] = tested on: Sporothrix; experiment: Antifungal activity against Sporothrix brasiliensis after 72 hrs by microdilution method
[2] = tested on: Sporothrix; experiment: Antifungal activity against Sporothrix mexicana after 72 hrs by microdilution method
[3] = tested on: Sporothrix schenckii; experiment: Antifungal activity against Sporothrix schenckii after 72 hrs by microdilution method
[4] = tested on: Sporothrix globosa; experiment: Antifungal activity against Sporothrix globosa after 72 hrs by microdilution method
[5] = tested on: Sporothrix albicans; experiment: Antifungal activity against Sporothrix albicans after 72 hrs by microdilution method

SMILES | MIC50 [1] [µg/mL] | MIC90 [1] [µg/mL] | MIC [2] [µg/mL] | MIC50 [3] [µg/mL] | MIC90 [3] [µg/mL] | MIC50 [4] [µg/mL] | MIC90 [4] [µg/mL] | MIC50 [5] [µg/mL] | MIC90 [5] [µg/mL] | MIC [1] [µg/mL] | MIC [3] [µg/mL] | MIC [4] [µg/mL] | MIC [5] [µg/mL]
CC(=O)N1CCN(c2ccc(OCC3COC(Cn4ccnc4)(c4ccc(Cl)cc4Cl)O3)cc2)CC1 (stereo not given) [KETOCONAZOLE] | 0.125 (≈ 0.235 µM) | 0.25 (≈ 0.47 µM) | 4 (≈ 7.53 µM) | 1 (≈ 1.88 µM) | 2 (≈ 3.76 µM) | 1 (≈ 1.88 µM) | 2 (≈ 3.76 µM) | 4 (≈ 7.53 µM) | 4 (≈ 7.53 µM) | – | – | – | –
CN(C/C=C/C#CC(C)(C)C)Cc1cccc2ccccc12 [TERBINAFINE] | 0.06 (≈ 0.206 µM) | 0.25 (≈ 0.858 µM) | 0.5 (≈ 1.72 µM) | 0.25 (≈ 0.858 µM) | 0.5 (≈ 1.72 µM) | 0.25 (≈ 0.858 µM) | 0.5 (≈ 1.72 µM) | 0.5 (≈ 1.72 µM) | 4 (≈ 13.7 µM) | 0.06 (≈ 0.206 µM) | – | – | –
C[C@@H]1[C@H](O)[C@@H](C)/C=C/C=C/C=C/C=C/C=C/C=C/C=C/[C@H](O[C@@H]2O[C@H](C)[C@@H](O)[C@H](N)[C@@H]2O)C[C@@H]2O[C@](O)(C[C@@H](O)C[C@@H](O)[C@H](O)CC[C@@H](O)C[C@@H](O)CC(=O)O[C@H]1C)C[C@H](O)[C@H]2C(=O)O [AMPHOTERICIN B] | 2 (≈ 2.16 µM) | 4 (≈ 4.33 µM) | 16 (≈ 17.3 µM) | 4 (≈ 4.33 µM) | 4 (≈ 4.33 µM) | 4 (≈ 4.33 µM) | 8 (≈ 8.66 µM) | 4 (≈ 4.33 µM) | 8 (≈ 8.66 µM) | – | – | – | –
Clc1cc(Cl)c2c(c1)CCc1ccccc1C2n1ccnc1 (stereo not given) [EBERCONAZOLE] | 0.25 (≈ 0.759 µM) | 1 (≈ 3.04 µM) | 32 (≈ 97.2 µM) | 2 (≈ 6.07 µM) | 8 (≈ 24.3 µM) | 2 (≈ 6.07 µM) | 4 (≈ 12.1 µM) | 8 (≈ 24.3 µM) | 16 (≈ 48.6 µM) | – | – | – | –
C[C@@H](c1nc(-c2ccc(C#N)cc2)cs1)[C@](O)(Cn1cncn1)c1ccc(F)cc1F [RAVUCONAZOLE] | 0.5 (≈ 1.14 µM) | 1 (≈ 2.29 µM) | 32 (≈ 73.1 µM) | 8 (≈ 18.3 µM) | 16 (≈ 36.6 µM) | 8 (≈ 18.3 µM) | 16 (≈ 36.6 µM) | 16 (≈ 36.6 µM) | 32 (≈ 73.1 µM) | – | – | – | –
C[C@@H](c1ncncc1F)[C@](O)(Cn1cncn1)c1ccc(F)cc1F [VORICONAZOLE] | 4 (≈ 11.5 µM) | 8 (≈ 22.9 µM) | 16 (≈ 45.8 µM) | 32 (≈ 91.6 µM) | 32 (≈ 91.6 µM) | 32 (≈ 91.6 µM) | 32 (≈ 91.6 µM) | 8 (≈ 22.9 µM) | 32 (≈ 91.6 µM) | – | – | – | –
CCCCCOc1ccc(-c2cc(-c3ccc(C(=O)N[C@H]4C[C@@H](O)[C@@H](O)NC(=O)[C@@H]5[C@@H](O)[C@@H](C)CN5C(=O)[C@H]([C@H](O)CC(N)=O)NC(=O)[C@H]([C@H](O)[C@@H](O)c5ccc(O)c(OS(=O)(=O)O)c5)NC(=O)[C@@H]5C[C@@H](O)CN5C(=O)[C@H]([C@@H](C)O)NC4=O)cc3)no2)cc1 [MICAFUNGIN] (X1-[Orn(4R-OH,5R-OH)]T[Hyp][hTyr(3S-OH,4S-OH,3'-OSO3H)][Gln(3R-OH)][Pro(3S-OH,4S-Me)]; lactam 1-C) | 256 (≈ 202 µM) | 256 (≈ 202 µM) | 256 (≈ 202 µM) | 256 (≈ 202 µM) | 256 (≈ 202 µM) | 256 (≈ 202 µM) | 256 (≈ 202 µM) | 256 (≈ 202 µM) | 256 (≈ 202 µM) | 256 (≈ 202 µM) | 256 (≈ 202 µM) | 256 (≈ 202 µM) | 256 (≈ 202 µM)
Nc1nc(=O)[nH]cc1F [FLUCYTOSINE] | 16 (≈ 124 µM) | 128 (≈ 992 µM) | 128 (≈ 992 µM) | 16 (≈ 124 µM) | 128 (≈ 992 µM) | 64 (≈ 496 µM) | 128 (≈ 992 µM) | 128 (≈ 992 µM) | 128 (≈ 992 µM) | – | – | – | 128 (≈ 992 µM)
OC(Cn1cncn1)(Cn1cncn1)c1ccc(F)cc1F [FLUCONAZOLE] | 128 (≈ 418 µM) | 128 (≈ 418 µM) | 128 (≈ 418 µM) | 128 (≈ 418 µM) | 128 (≈ 418 µM) | 128 (≈ 418 µM) | 128 (≈ 418 µM) | 128 (≈ 418 µM) | 128 (≈ 418 µM) | 128 (≈ 418 µM) | 128 (≈ 418 µM) | 128 (≈ 418 µM) | 128 (≈ 418 µM)
CC[C@@H]([C@H](C)O)n1ncn(-c2ccc(N3CCN(c4ccc(OC[C@@H]5CO[C@@](Cn6cncn6)(c6ccc(F)cc6F)C5)cc4)CC3)cc2)c1=O [POSACONAZOLE] | 0.5 (≈ 0.713 µM) | 1 (≈ 1.43 µM) | 32 (≈ 45.7 µM) | 1 (≈ 1.43 µM) | 8 (≈ 11.4 µM) | 2 (≈ 2.85 µM) | 8 (≈ 11.4 µM) | 2 (≈ 2.85 µM) | 2 (≈ 2.85 µM) | – | – | – | –
C[C@@H](n1cnc2cc(Cl)ccc2c1=O)[C@](O)(Cn1cncn1)c1ccc(F)cc1F [ALBACONAZOLE] | 1 (≈ 2.32 µM) | 4 (≈ 9.26 µM) | 32 (≈ 74.1 µM) | 16 (≈ 37.1 µM) | 32 (≈ 74.1 µM) | 16 (≈ 37.1 µM) | 16 (≈ 37.1 µM) | 16 (≈ 37.1 µM) | 32 (≈ 74.1 µM) | – | – | – | –
CCC(C)n1ncn(-c2ccc(N3CCN(c4ccc(OCC5COC(Cn6cncn6)(c6ccc(Cl)cc6Cl)O5)cc4)CC3)cc2)c1=O (stereo not given) [ITRACONAZOLE] | 0.5 (≈ 0.709 µM) | 1 (≈ 1.42 µM) | 32 (≈ 45.3 µM) | 4 (≈ 5.67 µM) | 32 (≈ 45.3 µM) | 32 (≈ 45.3 µM) | 32 (≈ 45.3 µM) | 32 (≈ 45.3 µM) | 32 (≈ 45.3 µM) | 0.5 (≈ 0.709 µM) | – | – | 32 (≈ 45.3 µM)
